Results from the supplement of paper PMC11061612.

Experiments:
Test in all cases: combination Emax (second highest fraction inhibited in the dose matrix, 72 h); higher = more inhibition; extreme values may be limits of the assay
[1] = system: LS-123 (Colorectal Carcinoma)
In short: (§1)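 Cell lines grown in DMEM/F12 or RPMI with 10% FBS were plated in 1536-well plates and held 24 hours at 37°C, 5% CO2 before 72 hours of exposure to two-drug dose matrices, with DMSO typically at 0.2%. CellTiter-Glo 2.0 luminescence gave viability, which was converted to inhibition. Vehicle wells were set to 0 and blank wells to 1. Combination Emax is the second-highest inhibition in the matrix, and Bliss excess is the observed combination effect minus the expected EA + EB − EA·EB, where EA and EB are the single-agent effects.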

[2] = system: LNZTA3WT4 (Low Grade Glioma)
In short: as §1

LOXIMVI (Melanoma) = system: LOXIMVI (Melanoma)
In short: as §1

NCI-H2722 (Mesothelioma) = system: NCI-H2722 (Mesothelioma)
In short: as §1

[3] = system: BFTC-909 (Kidney Carcinoma)
In short: as §1

[4] = system: LCLC-97TM1 (Non-Small Cell Lung Carcinoma)
In short: as §1

[5] = system: SNU-16 (Gastric Carcinoma)
In short: as §1

[6] = system: HeLa (Cervical Carcinoma)
In short: as §1

[7] = system: SAS (Oral Cavity Carcinoma)
In short: as §1

[8] = system: NCI-H524 (Small Cell Lung Carcinoma)
In short: as §1

[9] = system: ALL-PO (B-Lymphoblastic Leukemia)
In short: as §1

[10] = system: WSU-NHL (B-Cell Non-Hodgkin's Lymphoma)
In short: as §1

EW-11 (Ewing's Sarcoma) = system: EW-11 (Ewing's Sarcoma)
In short: as §1

[11] = system: Hs-746T (Gastric Carcinoma)
In short: as §1

[12] = system: KYAE-1 (Esophageal Adenocarcinoma)
In short: as §1

[13] = system: L-428 (Hodgkin's Lymphoma)
In short: as §1

[14] = system: SW1710 (Bladder Carcinoma)
In short: as §1

GAMG (Glioblastoma) = system: GAMG (Glioblastoma)
In short: as §1

[15] = system: OV-56 (Ovarian Carcinoma)
In short: as §1

[16] = system: SNU-449 (Hepatocellular Carcinoma)
In short: as §1

| SMILES | combination Emax [1] | combination Emax [2] | combination Emax (LOXIMVI (Melanoma)) | combination Emax (NCI-H2722 (Mesothelioma)) | combination Emax [3] | combination Emax [4] | combination Emax [5] | combination Emax [6] | combination Emax [7] | combination Emax [8] | combination Emax [9] | combination Emax [10] | combination Emax (EW-11 (Ewing's Sarcoma)) | combination Emax [11] | combination Emax [12] | combination Emax [13] | combination Emax [14] | combination Emax (GAMG (Glioblastoma)) | combination Emax [15] | combination Emax [16] |
| --- | --- | --- | --- | --- | --- | --- | --- | --- | --- | --- | --- | --- | --- | --- | --- | --- | --- | --- | --- | --- |
| CC1(C)CCC(CN2CCN(c3ccc(C(=O)NS(=O)(=O)c4ccc(NCC5CCOCC5)c([N+](=O)[O-])c4)c(Oc4cnc5[nH]ccc5c4)c3)CC2)=C(c2ccc(Cl)cc2)C1 [Venetoclax] + COc1cc(Nc2ncc3c(n2)-c2ccc(Cl)cc2C(c2c(F)cccc2OC)=NC3)ccc1C(=O)O [Alisertib] (first compound max 1 µM, 7x7, partner max 10 µM) | 0.385 | 0.472 | 0.5 | 0.281 | 0.502 | 0.497 | 0.955 | 0.702 | 0.39 | 0.991 | 1 | 0.985 | 0.649 | 0.65 | 0.128 | 0.363 | 0.306 | 0.662 | 0.225 | 0.313 |
| CC1(C)CCC(CN2CCN(c3ccc(C(=O)NS(=O)(=O)c4ccc(NCC5CCOCC5)c([N+](=O)[O-])c4)c(Oc4cnc5[nH]ccc5c4)c3)CC2)=C(c2ccc(Cl)cc2)C1 [Venetoclax] + C[C@@H]1COCCN1C2=NC(=NC(=C2)C3(CC3)[S@](=N)(=O)C)C4=C5C=CNC5=NC=C4 [AZD6738] (first compound max 1 µM, 7x7, partner max 10 µM) | 0.587 | 0.789 | 0.723 | 0.384 | 0.853 | 0.85 | 0.973 | 0.563 | 0.834 | 0.748 | 1 | 0.983 | 0.781 | 0.508 | 0.121 | 0.779 | 0.516 | 0.708 | 0.566 | 0.26 |
| CC1(C)CCC(CN2CCN(c3ccc(C(=O)NS(=O)(=O)c4ccc(NCC5CCOCC5)c([N+](=O)[O-])c4)c(Oc4cnc5[nH]ccc5c4)c3)CC2)=C(c2ccc(Cl)cc2)C1 [Venetoclax] + C[C@@H](Nc1cc(F)cc(F)c1)c1cc(C(=O)N(C)C)cc2c(=O)cc(N3CCOCC3)oc12 [AZD8186] (first compound max 1 µM, 7x7, partner max 3 µM) | 0.256 | 0.185 | 0.129 | 0.17 | 0.203 | 0.129 | 0.251 | 0.124 | 0.282 | 0.535 | 0.703 | 1 | 0.699 | 0.269 | 0.554 | 0.196 | 0.194 | 0.453 | 0.0859 | 0.172 |
| CC1(C)CCC(CN2CCN(c3ccc(C(=O)NS(=O)(=O)c4ccc(NCC5CCOCC5)c([N+](=O)[O-])c4)c(Oc4cnc5[nH]ccc5c4)c3)CC2)=C(c2ccc(Cl)cc2)C1 [Venetoclax] + Cc1cc2ncnn2cc1Nc1ncc2c(n1)n(C1CCOCC1)c(=O)n2C [AZD7648] (first compound max 1 µM, 7x7, partner max 10 µM) | 0.313 | 0.385 | 0.254 | 0.25 | 0.294 | 0.2 | 0.223 | 0.199 | 0.256 | 0.308 | 0.613 | 0.869 | 0.558 | 0.226 | 0.176 | 0.215 | 0.248 | 0.377 | 0.15 | 0.229 |
| CC1(C)CCC(CN2CCN(c3ccc(C(=O)NS(=O)(=O)c4ccc(NCC5CCOCC5)c([N+](=O)[O-])c4)c(Oc4cnc5[nH]ccc5c4)c3)CC2)=C(c2ccc(Cl)cc2)C1 [Venetoclax] + Cn1cnc2c(F)c(Nc3ccc(Br)cc3Cl)c(C(=O)NOCCO)cc21 [Selumetinib] (first compound max 1 µM, 7x7, partner max 3 µM) | 0.374 | 0.308 | 0.571 | 0.14 | 0.23 | 0.458 | 0.241 | 0.103 | 0.368 | 0.113 | 0.538 | 0.745 | 0.451 | 0.242 | 0.0726 | 0.137 | 0.216 | 0.157 | 0.108 | 0.109 |
